In the supplement of paper PMC10331698:
± gives the standard deviation of the averaged measurements.

Assays:
Experiment in all cases: level (log10 ratio to DMSO vehicle control); higher = higher biomarker level / cell amount than vehicle control
[1] = compound: CCN(CCO)S(=O)(=O)C(F)(F)C(F)(F)C(F)(F)C(F)(F)C(F)(F)C(F)(F)C(F)(F)C(F)(F)F [N-Ethyl-N-(2-hydroxyethyl)perfluorooctanesulfonamide]; settings: in DMSO
Experimental: (§1)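 BioMAP Diversity Plus panel of 12 human primary cell co-culture systems (3C, 4H, LPS, SAg, BT, BF4T, BE3C, CASM3C, HDF3CGF, KF3CT, MyoF, Mphg). Compounds were added 1 h before stimulation and left for 24 h (MyoF 48 h; BT 72 h for soluble read-outs or 6 d for IgG). Biomarkers were read by ELISA, cytotoxicity by SRB, PBMC viability and proliferation by Alamar Blue. Each well value was divided by the mean of 8 DMSO control wells on the same plate and log10 transformed; duplicate blinded samples were tested at 4 concentrations.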

[2] = compound: O=C(O)C(F)(F)OC(F)(F)C(F)(F)OC(F)(F)C(=O)O [Perfluoro-3,6-dioxaoctane-1,8-dioic acid]; settings: in DMSO
Experimental: as §1

Perfluorobutanoic acid = compound: O=C(O)C(F)(F)C(F)(F)C(F)(F)F [Perfluorobutanoic acid]; settings: in DMSO
Experimental: as §1

Perfluoro-1-iodohexane = compound: FC(F)(F)C(F)(F)C(F)(F)C(F)(F)C(F)(F)C(F)(F)I [Perfluoro-1-iodohexane]; settings: in DMSO
Experimental: as §1

[3] = compound: OCCCC(F)(F)C(F)(F)C(F)(F)C(F)(F)C(F)(F)C(F)(F)C(F)(F)F [7:3 Fluorotelomer alcohol]; settings: 6700 nM; in DMSO
Experimental: as §1

[4] = compound: FC(F)(F)C(F)(F)C(F)(F)C(F)(F)C(F)(F)CCI [1-Iodo-1H,1H,2H,2H-perfluoroheptane]; settings: in DMSO
Experimental: as §1

Perfluoroheptanoic acid = compound: O=C(O)C(F)(F)C(F)(F)C(F)(F)C(F)(F)C(F)(F)C(F)(F)F [Perfluoroheptanoic acid]; settings: in DMSO
Experimental: as §1

Test System	level (log10) ([1]; 6700 nM)	level (log10) ([1]; 20000 nM)	level (log10) ([2]; 6700 nM)	level (log10) ([2]; 20000 nM)	level (log10) ([2]; 60000 nM)	level (log10) (Perfluorobutanoic acid; 6700 nM)	level (log10) (Perfluorobutanoic acid; 20000 nM)	level (log10) (Perfluorobutanoic acid; 60000 nM)	level (log10) (Perfluoro-1-iodohexane; 6700 nM)	level (log10) (Perfluoro-1-iodohexane; 20000 nM)	level (log10) (Perfluoro-1-iodohexane; 60000 nM)	level (log10) [3]	level (log10) ([4]; 6700 nM)	level (log10) ([4]; 20000 nM)	level (log10) ([4]; 60000 nM)	level (log10) (Perfluoroheptanoic acid; 6700 nM)	level (log10) (Perfluoroheptanoic acid; 20000 nM)	level (log10) (Perfluoroheptanoic acid; 60000 nM)
4H:CD62P/P-selectin	-0.079 ± 0.0014	-0.142 ± 0.044	-0.004	0.014 ± 0.0014	0.0275 ± 0.013	0.086 ± 0.076	0.0575 ± 0.0035	0.09 ± 0.054	0.034 ± 0.028	-0.012 ± 0.11	0.0625 ± 0.14	0.04 ± 0.027	0.028 ± 0.075	0.049 ± 0.033	-0.0635 ± 0.044	0.007 ± 0.018	0.0035 ± 0.016	0.0605 ± 0.05
BT:sIL-17A	0.122 ± 0.083	-0.631 ± 0.21	-0.0535 ± 0.049	0.154 ± 0.19	0.0055 ± 0.047	0.0335 ± 0.018	-0.0265 ± 0.025	-0.019 ± 0.021	-0.004 ± 0.018	-0.0905 ± 0.12	-0.089 ± 0.2	-0.0585 ± 0.17	-0.269 ± 0.12	0.037 ± 0.15	-0.22 ± 0.067	0.047 ± 0.027	0.0865 ± 0.16	-0.0095 ± 0.22
BE3C:CXCL9/MIG	-0.006 ± 0.0028	-0.0285 ± 0.0035	0.0015 ± 0.0064	-0.003 ± 0.0099	0.0015 ± 0.0021	0.002 ± 0.0071	-0.004 ± 0.013	-0.0005 ± 0.00071	0.0085 ± 0.0035	-0.002 ± 0.0071	-0.0035 ± 0.018	-0.0015 ± 0.0021	-0.001 ± 0.0014	-0.008 ± 0.0042	-0.008 ± 0.013	0 ± 0.0014	0.0065 ± 0.011	0.012 ± 0.017
3C:CXCL9/MIG	-0.013 ± 0.0085	-0.006 ± 0.0085	0.003 ± 0.0057	-0.009 ± 0.0028	0.0095 ± 0.005	-0.003 ± 0.0042	-0.0015 ± 0.011	0.0085 ± 0.0078	0.0045 ± 0.025	0.007 ± 0.014	0.0075 ± 0.029	-0.0135 ± 0.0035	-0.0035 ± 0.005	-0.011 ± 0.0028	-0.0075 ± 0.0064	0.0115 ± 0.0035	-0.01 ± 0.0071	0.0135 ± 0.0078
SAg:CD62E/E-Selectin	0.0625 ± 0.013	0.079 ± 0.016	0.007 ± 0.0085	0.011 ± 0.0028	0.011 ± 0.021	-0.026 ± 0.0042	-0.024 ± 0.0057	-0.024 ± 0.013	-0.009 ± 0.0014	0.0055 ± 0.019	0.0095 ± 0.044	-0.0005 ± 0.00071	0.023 ± 0.062	-0.0295 ± 0.0078	0.017 ± 0.0085	-0.025 ± 0.0085	0.011	0.008 ± 0.013
SAg:CD40	0 ± 0.028	-0.052 ± 0.023	0.015 ± 0.0028	0.01 ± 0.0057	-0.008 ± 0.013	-0.0055 ± 0.026	-0.014 ± 0.02	-0.0015 ± 0.0092	-0.019 ± 0.013	-0.0195 ± 0.018	0.012 ± 0.061	-0.031 ± 0.0057	0.0015 ± 0.0078	-0.0095 ± 0.0021	-0.011 ± 0.011	-0.015 ± 0.027	-0.006 ± 0.0028	-0.021 ± 0.018
SAg:PBMC Cytotoxicity	-0.039 ± 0.052	-0.0865 ± 0.042	0.0115 ± 0.023	0.012 ± 0.0099	0.0115 ± 0.0078	-0.0155 ± 0.00071	-0.013 ± 0.037	-0.009 ± 0.057	-0.025 ± 0.023	-0.014 ± 0.0014	-0.024 ± 0.028	-0.0315 ± 0.018	-0.016 ± 0.024	0.0085 ± 0.018	-0.033 ± 0.045	0.0255 ± 0.0021	0.0095 ± 0.019	0.0195 ± 0.026
4H:VEGFR2	0.0365 ± 0.0092	0.002 ± 0.0042	-0.045 ± 0.016	-0.06 ± 0.011	-0.016 ± 0.047	-0.025 ± 0.021	-0.0105 ± 0.005	0.004 ± 0.013	0.0075 ± 0.0092	0.006 ± 0.02	0.004 ± 0.023	0.014 ± 0.017	0.002 ± 0.047	-0.004 ± 0.017	0.0155 ± 0.0021	0.016 ± 0.027	0.022 ± 0.013	0.012 ± 0.054
